This is an account of results in patent publication US11220488B2, “Crystalline polymorph of Ponesimod” (TEVA PHARMACEUTICALS INTERNATIONAL GMBH, priority 2017, dated 2022).

The data set can be described thus: Solubility measurement by dissolution apparatus, Ponesimod content by liquid chromatography. The format is physicochemical. As for the experimental part: The solubility for Ponesimod Form T1, according to this invention, Ponesimod Form A and Form C (described in PCT application WO 2010/046835) was measured by using Dissolution apparatus (Lab India DS8000) at 37° C. Buffers at pH. 1.2, 4.5 and 6.8 were prepared as per the USP 36 Solutions/Buffer Solutions 1209. About 200 mg of Ponesimod Form T1, 150 mg of Ponesimod Forms A and C were added to the 100 mL buffer (pH 1.2, 4.5 and 6.8) in individual flasks to obtain saturated suspension and the suspension was stirred with 250 rpm for 24 hours. Suspension was observed though out stirring period. Samples were drawn at different intervals on completion of 15 mins, 30 mins, 45 mins, 1 hrs, 2 hrs, 3 hrs, 4 hrs and 24 hrs from each flask and filtered through 0.45μ PTFE filter, each solution was analyzed for Ponesimod content by liquid chromatography.

Structures are written as SMILES. Values after ≈ are worked out from the molar mass of the structure shown.

For `CCC/N=C1\S/C(=C\c2ccc(OC[C@H](O)CO)c(Cl)c2)C(=O)N1c1ccccc1C` [Form A, (R)-5-[3-chloro-4-(2,3-dihydroxy-propoxy)-benz[Z]ylidene]-2-([Z]-propylimino)-3-o-tolyl-thiazolidin-4-one], the solubility at 45 min (pH 1.2 buffer (USP), 37 °C, pH 1.2, simulated gastric fluid, thermodynamic from solid, pH 1.2 buffer, 45 Min) was 120 µg/mL (≈ 260 µM). In addition, the solubility at 60 min (pH 1.2 buffer (USP), 37 °C, pH 1.2, simulated gastric fluid, thermodynamic from solid, pH 1.2 buffer, 60 Min) is 120 µg/mL (≈ 260 µM). In addition, the “Solubility results at pH = 1.2” value amounted to 0.11 mg/ml (pH 1.2 buffer, 37° C., 2 Hrs, listed as A); 0.11 mg/ml (pH 1.2 buffer, 37° C., 3 Hrs, listed as A); 0.11 mg/ml (pH 1.2 buffer, 37° C., 4 Hrs, listed as A); 0.13 mg/ml (pH 1.2 buffer, 37° C., 30 Min, listed as A).

With `CCC/N=C1\S/C(=C\c2ccc(OC[C@H](O)CO)c(Cl)c2)C(=O)N1c1ccccc1C` [Form C, (R)-5-[3-chloro-4-(2,3-dihydroxy-propoxy)-benz[Z]ylidene]-2-([Z]-propylimino)-3-o-tolyl-thiazolidin-4-one], the “Solubility results at pH = 1.2” value (pH 1.2 buffer, 37° C., 2 Hrs, listed as C) was found to be 0.09 mg/ml; the “Solubility results at pH = 1.2” value (pH 1.2 buffer, 37° C., 3 Hrs, listed as C) turned out to be 0.11 mg/ml; the “Solubility results at pH = 1.2” value (pH 1.2 buffer, 37° C., 4 Hrs, listed as C) was determined as 0.12 mg/ml; the “Solubility results at pH = 1.2” value (pH 1.2 buffer, 37° C., 15 Min, listed as C) is listed as 0.05 mg/ml; the “Solubility results at pH = 1.2” value (pH 1.2 buffer, 37° C., 24 Hrs, listed as C) was 0.15 mg/ml; the “Solubility results at pH = 1.2” value (pH 1.2 buffer, 37° C., 30 Min, listed as C) stood at 0.06 mg/ml. Besides, the “Solubility results at pH = 1.2” value (pH 1.2 buffer, 37° C., 45 Min, listed as C) is reported as 0.07 mg/ml and the “Solubility results at pH = 1.2” value (pH 1.2 buffer, 37° C., 60 Min, listed as C) was determined as 0.08 mg/ml.

As to `CCC/N=C1\S/C(=C\c2ccc(OC[C@H](O)CO)c(Cl)c2)C(=O)N1c1ccccc1C` [Form T1, (R)-5-[3-chloro-4-(2,3-dihydroxy-propoxy)-benz[Z]ylidene]-2-([Z]-propylimino)-3-o-tolyl-thiazolidin-4-one], where the note is “comparison in words”, the “Solubility compared to other known crystalline polymorphs of Ponesimod” value was “higher solubility”. Moreover, the “Solubility results at pH = 1.2” value runs as follows: (pH 1.2 buffer, 37° C., 2 Hrs, listed as T1) 0.24 mg/ml; (pH 1.2 buffer, 37° C., 3 Hrs, listed as T1) 0.29 mg/ml; (pH 1.2 buffer, 37° C., 4 Hrs, listed as T1) 0.31 mg/ml; (pH 1.2 buffer, 37° C., 15 Min, listed as T1) 0.07 mg/ml; (pH 1.2 buffer, 37° C., 24 Hrs, listed as T1) 0.40 mg/ml; (pH 1.2 buffer, 37° C., 30 Min, listed as T1) 0.09 mg/ml. Also, the “Solubility results at pH = 1.2” value runs as follows: (pH 1.2 buffer, 37° C., 45 Min, listed as T1) 0.12 mg/ml; (pH 1.2 buffer, 37° C., 60 Min, listed as T1) 0.15 mg/ml.

As for `CCC/N=C1\S/C(=C\c2ccc(OC[C@H](O)CO)c(Cl)c2)C(=O)N1c1ccccc1C` [Ponesimod, (R)-5-[3-chloro-4-(2,3-dihydroxy-propoxy)-benz[Z]ylidene]-2-([Z]-propylimino)-3-o-tolyl-thiazolidin-4-one], the “Solubility at higher pH conditions” value (higher pH conditions (e.g. 4.5 and 6.8), 37° C.) is “not soluble”.
